Measured values: patent US20170369444A1, “INHIBITORS OF HISTONE DEMETHYLASES” (Gilead Sciences, Inc., priority 2014, published 2017)

Experiments:
Type in all cases: biochemical
KDM4C (JMJD2C) = biological target: T1, KDM4C (JMJD2C) (Homo sapiens, UniProt Q9H3R0); assay: Histone lysine demethylase AlphaLISA assay, KDM4C; details: in vitro enzyme, read-out: KDM4C IC50 (HDME Inhibition)
T1 construct: 1-349; host or cells: E. coli
T1 sequence (Q9H3R0 1-349): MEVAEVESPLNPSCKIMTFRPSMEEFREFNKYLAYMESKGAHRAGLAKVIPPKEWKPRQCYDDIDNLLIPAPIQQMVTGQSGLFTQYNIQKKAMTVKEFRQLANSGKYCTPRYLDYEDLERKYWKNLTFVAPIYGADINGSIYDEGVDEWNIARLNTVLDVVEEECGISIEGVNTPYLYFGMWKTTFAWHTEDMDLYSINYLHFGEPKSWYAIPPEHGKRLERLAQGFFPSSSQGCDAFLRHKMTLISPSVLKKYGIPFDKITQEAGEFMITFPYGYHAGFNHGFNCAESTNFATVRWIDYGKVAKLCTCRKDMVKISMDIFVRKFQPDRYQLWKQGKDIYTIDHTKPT
Method: (§1) Histone lysine demethylase AlphaLISA assays are performed to determine IC50 values. […] Assays are performed analogously to the protocol described by PerkinElmer (Roy et al. PerkinElmer Technical Note: AlphaLISA #12, April 2011).
(§2) Assays are performed analogously to the protocol described by PerkinElmer (Roy et al. PerkinElmer Technical Note: AlphaLISA #12, April 2011).
(§3) Enzymes (final assay concentration 0.1-2.5 nM) are dissolved in enzyme buffer and incubated for 10 min before 5 μL is added to 5 μL 3% DMSO solutions of compounds in enzyme buffer, incubated for another 10 minutes, before 5 μL substrate solution is added and the reaction mixture is incubated at room temperature. 10 μL acceptor beads, suspended Epigenetic Buffer (Perkin Elmer AL008) from stock, are added and the suspension is incubated in the dark at room temperature, before 10 μL suspension of streptavidin donor beads (Perkin Elmer 6760002) in Epigenetic Buffer is added. After incubation at room temperature in the dark the plates are read.
(§4) Substrate solution: Substrate (final assay concentration 50-200 nM), 50 mM Hepes (pH 7.4-8.0), 0.003% Tween-20, 0.1% BS, 25 μM L-Asc, 10 μM α-KG. Enzyme Buffer: 50 mM Hepes (pH 7.4-8.0), 0.003% Tween-20, 0.1% BSA; 5 μM (NH4)2Fe(SO4)2

KDM2B (FBXL10) = biological target: T2, KDM2B (FBXL10) (Homo sapiens, UniProt Q8NHM5); assay: Histone lysine demethylase AlphaLISA assay, KDM2B; details: in vitro enzyme, read-out: KDM2B IC50 (HDME Inhibition)
T2 construct: 1-650; purchased BPS Bioscience, US; host or cells: Bac (baculovirus/insect cells)
T2 sequence (Q8NHM5 1-650): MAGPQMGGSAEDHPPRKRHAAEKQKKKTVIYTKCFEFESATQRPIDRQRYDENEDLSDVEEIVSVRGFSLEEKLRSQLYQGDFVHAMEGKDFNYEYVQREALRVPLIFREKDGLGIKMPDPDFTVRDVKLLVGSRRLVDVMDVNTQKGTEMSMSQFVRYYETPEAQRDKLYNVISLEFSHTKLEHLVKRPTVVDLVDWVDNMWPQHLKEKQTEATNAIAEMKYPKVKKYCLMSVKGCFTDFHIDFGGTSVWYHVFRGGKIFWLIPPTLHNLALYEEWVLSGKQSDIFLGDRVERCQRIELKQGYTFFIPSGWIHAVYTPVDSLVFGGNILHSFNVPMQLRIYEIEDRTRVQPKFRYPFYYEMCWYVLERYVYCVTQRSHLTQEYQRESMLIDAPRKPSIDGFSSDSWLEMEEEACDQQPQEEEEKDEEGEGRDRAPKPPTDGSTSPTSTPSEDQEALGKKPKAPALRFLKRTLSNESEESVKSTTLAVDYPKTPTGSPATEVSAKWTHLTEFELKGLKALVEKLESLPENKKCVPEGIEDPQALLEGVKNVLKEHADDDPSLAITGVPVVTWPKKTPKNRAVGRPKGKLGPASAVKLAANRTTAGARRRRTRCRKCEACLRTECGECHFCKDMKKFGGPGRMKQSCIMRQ
Method: as §1, §2, §3, §4

KDM5B (PLU-1) = biological target: T3, KDM5B (PLU-1) (Homo sapiens, UniProt Q9UGL1); assay: Histone lysine demethylase AlphaLISA assay, KDM5B; details: in vitro enzyme, read-out: KDM5B IC50 (HDME Inhibition)
T3 construct: 1-809; host or cells: E. coli
T3 sequence (Q9UGL1 1-809): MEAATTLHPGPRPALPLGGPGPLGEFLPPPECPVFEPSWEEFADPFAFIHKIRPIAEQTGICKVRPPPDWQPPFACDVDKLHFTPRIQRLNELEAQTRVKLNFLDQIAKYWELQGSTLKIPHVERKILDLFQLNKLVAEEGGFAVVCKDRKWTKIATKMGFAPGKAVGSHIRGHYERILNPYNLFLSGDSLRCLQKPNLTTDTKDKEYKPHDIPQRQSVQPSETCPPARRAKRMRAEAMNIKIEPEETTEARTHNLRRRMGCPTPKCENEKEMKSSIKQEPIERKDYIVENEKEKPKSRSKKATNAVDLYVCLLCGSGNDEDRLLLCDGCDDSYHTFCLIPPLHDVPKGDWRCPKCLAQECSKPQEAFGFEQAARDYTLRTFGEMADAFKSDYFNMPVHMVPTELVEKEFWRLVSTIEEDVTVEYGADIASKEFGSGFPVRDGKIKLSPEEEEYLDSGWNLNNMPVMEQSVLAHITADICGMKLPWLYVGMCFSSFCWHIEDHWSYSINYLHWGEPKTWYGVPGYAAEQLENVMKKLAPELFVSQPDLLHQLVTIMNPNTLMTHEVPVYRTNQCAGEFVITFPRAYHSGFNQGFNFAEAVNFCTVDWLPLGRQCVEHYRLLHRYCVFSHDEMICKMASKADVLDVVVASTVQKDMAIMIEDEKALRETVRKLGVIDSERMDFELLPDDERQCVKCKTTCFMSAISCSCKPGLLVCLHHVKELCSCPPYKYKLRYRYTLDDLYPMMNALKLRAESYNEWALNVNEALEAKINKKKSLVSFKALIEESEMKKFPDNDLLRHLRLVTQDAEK

PHF8 (KDM7) = PHF8 (KDM7) (Homo sapiens, UniProt Q9UPP1); assay: Histone lysine demethylase AlphaLISA assay, PHF8; details: in vitro enzyme, read-out: PHF8 IC50 (HDME Inhibition)
KDM6A (UTX) = biological target: T4, KDM6A (UTX) (Homo sapiens, UniProt O15550); assay: Histone lysine demethylase AlphaLISA assay, KDM6A; details: in vitro enzyme, read-out: KDM6A IC50 (HDME Inhibition)
T4 construct: 919-1401; host or cells: E. coli
T4 sequence (O15550 919-1401): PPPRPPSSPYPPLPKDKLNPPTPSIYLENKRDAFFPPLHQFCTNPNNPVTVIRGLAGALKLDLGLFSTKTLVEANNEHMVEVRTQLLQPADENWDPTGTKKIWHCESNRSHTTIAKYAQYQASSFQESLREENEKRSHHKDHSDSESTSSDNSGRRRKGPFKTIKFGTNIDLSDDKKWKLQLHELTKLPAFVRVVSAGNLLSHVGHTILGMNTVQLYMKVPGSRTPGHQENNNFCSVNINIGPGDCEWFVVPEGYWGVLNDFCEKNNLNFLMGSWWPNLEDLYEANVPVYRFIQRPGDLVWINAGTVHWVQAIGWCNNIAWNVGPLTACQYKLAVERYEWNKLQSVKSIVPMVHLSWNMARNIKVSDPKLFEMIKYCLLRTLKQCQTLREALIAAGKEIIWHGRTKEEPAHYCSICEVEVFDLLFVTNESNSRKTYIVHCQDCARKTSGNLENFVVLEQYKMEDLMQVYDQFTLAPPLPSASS

PHF8 (KDM7), sequence (Q9UPP1 whole entry): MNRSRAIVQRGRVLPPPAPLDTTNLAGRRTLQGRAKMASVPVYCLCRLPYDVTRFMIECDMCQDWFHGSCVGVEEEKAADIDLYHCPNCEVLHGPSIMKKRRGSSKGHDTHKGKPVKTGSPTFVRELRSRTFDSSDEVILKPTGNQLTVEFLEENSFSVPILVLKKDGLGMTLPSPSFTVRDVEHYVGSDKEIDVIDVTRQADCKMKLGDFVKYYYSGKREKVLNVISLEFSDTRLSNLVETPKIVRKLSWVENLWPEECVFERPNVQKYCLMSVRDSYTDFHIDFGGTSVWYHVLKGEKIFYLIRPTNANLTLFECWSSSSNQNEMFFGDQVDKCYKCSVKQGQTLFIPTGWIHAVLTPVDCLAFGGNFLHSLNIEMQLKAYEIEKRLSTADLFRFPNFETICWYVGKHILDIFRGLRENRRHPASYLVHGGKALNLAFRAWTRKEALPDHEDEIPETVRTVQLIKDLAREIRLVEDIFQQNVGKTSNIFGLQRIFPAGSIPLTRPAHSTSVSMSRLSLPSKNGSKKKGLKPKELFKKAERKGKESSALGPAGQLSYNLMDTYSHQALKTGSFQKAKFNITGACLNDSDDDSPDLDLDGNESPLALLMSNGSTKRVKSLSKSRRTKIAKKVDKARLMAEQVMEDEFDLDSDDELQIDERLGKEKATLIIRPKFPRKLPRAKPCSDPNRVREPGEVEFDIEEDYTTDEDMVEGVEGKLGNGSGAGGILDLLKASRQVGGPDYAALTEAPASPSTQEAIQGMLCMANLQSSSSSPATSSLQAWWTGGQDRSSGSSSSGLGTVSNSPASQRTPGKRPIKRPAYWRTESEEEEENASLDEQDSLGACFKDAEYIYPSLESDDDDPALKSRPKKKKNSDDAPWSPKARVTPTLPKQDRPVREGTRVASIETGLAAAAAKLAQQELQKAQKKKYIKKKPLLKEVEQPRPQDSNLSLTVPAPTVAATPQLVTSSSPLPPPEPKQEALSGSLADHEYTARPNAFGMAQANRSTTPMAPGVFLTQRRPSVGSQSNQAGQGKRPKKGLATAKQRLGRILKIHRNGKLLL

Compound | IC50 (KDM4C (JMJD2C)) | IC50 (KDM2B (FBXL10)) | IC50 (KDM5B (PLU-1)) | IC50 (PHF8 (KDM7)) | IC50 (KDM6A (UTX))
C=CCN(CC=C)C(=O)[C@@H](CCCCN(CCC)C(=O)OC(C)(C)C)NCc1cc(C(=O)O)ccn1 [Compound 4, 2-({[(1R)-1-[bis(prop-2-en-1-yl)carbamoyl]-5-{[(tert-butoxy)carbonyl](propyl)amino}pentyl]amino}methyl)pyridine-4-carboxylic acid] | > 2500 nM | 250 to 2500 nM | > 2500 nM | – | –
CC(C)(C)OC(=O)NCCCC[C@@H](CO)NCc1cc(C(=O)O)ccn1 [Compound 22, 2-({[(2S)-6-{[(tert-butoxy)carbonyl]amino}-1-hydroxyhexan-2-yl]amino}methyl)pyri-dine-4-carboxylic acid] | 250 to 2500 nM | < 250 nM | < 250 nM | – | > 2500 nM
O=C(O)c1cc(CNCC(=O)N2CCCCC2)ncn1 [Compound 35, 6-({[2-oxo-2-(piperidin-1-yl)ethyl]amino}methyl) pyrimidine-4-carboxylic acid] | 250 to 2500 nM | 250 to 2500 nM | – | 250 to 2500 nM | > 2500 nM
CC(NCc1nccs1)c1cc(C(=O)O)ccn1 (stereo not drawn) [Compound 41, 2-{1-[(1,3-thiazol-2-ylmethyl)amino]ethyl} pyridine-4-carboxylic acid] | 250 to 2500 nM | 250 to 2500 nM | 250 to 2500 nM | – | –
CC(NCC(=O)N1CCCCC1)c1cc(C(=O)O)ccn1 (stereo not drawn) [Compound 48, 2-(1-{[2-oxo-2-(piperidin-1-yl)ethyl]amino}ethyl) pyridine-4-carboxylic acid] | 250 to 2500 nM | 250 to 2500 nM | 250 to 2500 nM | – | –
O=C(O)c1ccnc(CNCc2cn(Cc3ccc(F)cc3)c3ccc(F)cc23)c1 [Compound 86, 2-{[({5-fluoro-1-[(4-fluorophenyl)methyl]-1H-indol-3-yl}methyl)amino]methyl}pyridine-4-carboxylic acid] | > 2500 nM | 250 to 2500 nM | – | – | > 2500 nM
O=C(O)c1ccnc(CNC2CCc3cccnc32)c1 (stereo not drawn) [Compound 98, 2-[({5H,6H,7H-cyclopenta[b]pyridin-7-yl}amino)methyl]pyri-dine-4-carboxylic acid] | 250 to 2500 nM | 250 to 2500 nM | < 250 nM | – | –
O=C(O)c1ccnc(CNC2CCc3cc(Br)cnc32)c1 (stereo not drawn) [Compound 103, 2-[({3-bromo-5H,6H,7H-cyclopenta[b]pyridin-7-yl}amino)methyl]pyri-dine-4-carboxylic acid] | 250 to 2500 nM | < 250 nM | – | < 250 nM | > 2500 nM

The remaining lines, values ahead:

IC50 (KDM4C (JMJD2C)) | IC50 (KDM2B (FBXL10)) | IC50 (KDM5B (PLU-1)) | IC50 (PHF8 (KDM7)) | IC50 (KDM6A (UTX)) | Compound
> 2500 nM | > 2500 nM | < 250 nM | – | – | C=CCN(CC=C)C(=O)[C@H](CC(=O)NCCCN(C)C)NCc1cc(C(=O)O)ccn1 [Compound 10, 2-({[(1S)-1-[bis(prop-2-en-1-yl)carbamoyl]-2-{[3-(dimethylamino)propyl]carbamoyl}ethyl]amino}methyl)pyridine-4-carboxylic acid]
> 2500 nM | 250 to 2500 nM | – | 250 to 2500 nM | – | COCC(=O)Nc1ccccc1CNC(=O)[C@H](CC(C)C)NCc1cc(C(=O)O)ccn1 [Compound 12, 2-({[(1S)-1-({[2-(2-methoxyacetamido)phenyl]methyl}carbamoyl)-3-methylbutyl]amino}methyl)pyridine-4-carboxylic acid]
> 2500 nM | 250 to 2500 nM | – | – | > 2500 nM | C[C@H](N[C@H](C)c1cc(C(=O)O)ccn1)C(=O)NCc1ccc(CO)cc1 [Compound 16, 2-[(1R)-1-{[(1S)-1-({[4-(hydroxymethyl)phenyl]methyl}carbamoyl)ethyl]amino}ethyl] pyridine-4-carboxylic acid]
> 2500 nM | > 2500 nM | – | > 2500 nM | – | CCN(CC)C(=O)CCN(CC(N)=O)C(C)c1cc(C(=O)O)ccn1 (stereo not drawn) [Compound 31, 2-{1-[(carbamoylmethyl)[2-(diethylcarbamoyl)ethyl]amino]ethyl}pyridine-4-carboxylic acid]
> 2500 nM | 250 to 2500 nM | – | > 2500 nM | – | CCN(CC)C(=O)CCN(CCC(=O)N(CC)CC)Cc1cc(C(=O)O)ccn1 [Compound 32, 2-({bis[2-(diethylcarbamoyl)ethyl]amino}methyl)pyri-dine-4-carboxylic acid]
> 2500 nM | 250 to 2500 nM | – | 250 to 2500 nM | – | CCN(CC)C(=O)CC(C)NCc1cc(C(=O)O)ccn1 (stereo not drawn) [Compound 43, 2-({[1-(diethylcarbamoyl)propan-2-yl]amino}methyl)pyri-dine-4-carboxylic acid]
> 2500 nM | 250 to 2500 nM | – | 250 to 2500 nM | – | CCNC(=O)C[C@H]1CCN(Cc2cc(C(=O)O)ccn2)C1 [Compound 73, 2-{[(3R)-3-[(ethylcarbamoyl)methyl]pyrrolidin-1-yl]methyl}pyridine-4-carboxylic acid]
250 to 2500 nM | < 250 nM | – | < 250 nM | – | C=CCc1cnc2c(c1)CCC2NCc1cc(C(=O)O)ccn1 (stereo not drawn) [Compound 95, 2-({[3-(prop-2-en-1-yl)-5H,6H,7H-cyclopenta[b]pyridin-7-yl]amino}methyl)pyri-dine-4-carboxylic acid]
250 to 2500 nM | < 250 nM | – | – | > 2500 nM | CC(C)c1ccnc2c1CCC2NCc1cc(C(=O)O)ccn1 (stereo not drawn) [Compound 99, 2-({[4-(propan-2-yl)-5H,6H,7H-cyclopenta[b]pyridin-7-yl]amino}methyl)pyri-dine-4-carboxylic acid]
250 to 2500 nM | < 250 nM | < 250 nM | – | – | COc1ccnc2c1CCC2NCc1cc(C(=O)O)ccn1 (stereo not drawn) [Compound 101, 2-[({4-methoxy-5H,6H,7H-cyclopenta[b]pyridin-7-yl}amino)methyl]pyri-dine-4-carboxylic acid]
< 250 nM | < 250 nM | – | – | > 2500 nM | CCN1CC[C@H](CNCc2cc(C(=O)O)ccn2)C1=O [Compound 106, 2-[({[(3R)-1-ethyl-2-oxopyrrolidin-3-yl]methyl}amino)methyl]pyridine-4-carboxylic acid]
